Several values for one entry are separate records, joined by “and”; a condition that tells them apart may be missing. Identical values can stand only once. Like-named read-outs stand apart in the source and are kept apart here.
Legend:
PvDFRa [1] = molecular target: T1, PvDFRa (Panicum virgatum, UniProt A0A8T0SQV2); assay: Isothermal titration calorimetry, PvDFRa; format: binding; conditions: for ∆H / ∆S: ITC, 298 K
Procedure: In order to obtain thermodynamic parameters for the association, isothermal titration calorimetry (ITC) for PvDFRa was performed (Figure S8, Table 2).
Isothermal Titration Calorimetry: Purified PvDFR was dialyzed to a buffer containing 50 mM Bis-Tris, 50 mM Tricine (pH 6.5), 200 mM NaCl and 2.5% (v/v) glycerol. Substrates were dissolved in the same buffer used for enzyme dialysis. Analysis was conducted utilizing a Microcal ITC 200 (Malvern). […] A total of 22 injections were made, each with a volume of 2 uL. Data analysis was conducted utilizing Origin Software 7 and modeled to the appropriate nonlinear regression.

PvDFRa WT = PvDFRa WT (Panicum virgatum, UniProt A0A8T0SQV2); assay: Enzyme kinetic assay, wild-type PvDFRa; format: biochemical; conditions: for substrate inhibition at higher substrate concentrations: KI much greater than Km, could not be quantified
Procedure: (§1) Kinetic Assays of PvDFRa, SbDFR3, mutant PvDFRa, and SbFNRs: DFR was purified to the same purity as used in crystallization. Enzymatic assay followed the methodology previously reported with small changes. A solution of 0.1 M potassium phosphate at pH 7.0 was utilized, and substrate concentration was varied from 5 µM to 800 µM. The reaction was initiated with 0.05 mg enzyme in a total reaction volume of 200 µL. […] The reaction proceeded for 15 min. at 25 °C and was terminated by the addition of 600 µL 95:5 (v/v) n-butanol:HCl. […] The reactions were centrifuged for 15 min. at 14,000× g and the supernatant was used to determine product concentrations with a GENESYS™ 10S UV-Vis Spectrophotometer (Thermo Scientific, Waltham, MA, USA). The absorbances of cyanidin delphinidin and pelargonidin were measured at 550, 550, and 528 nm, respectively. The concentrations were determined based on calibrations with reference compounds (Figure S12). […] Data analysis was conducted utilizing GraphPad Prism 8.0.2 using linear regression to model the appropriate model. Error in each data point is shown utilizing the standard deviation.

PvDFRa T143S = PvDFRa T143S (Panicum virgatum, UniProt A0A8T0SQV2, T143S); assay: Enzyme kinetic assay, PvDFRa T143S mutant; format: biochemical; conditions: relative to wild-type PvDFRa
Procedure: (§2) Site-directed mutagenesis was conducted using primers generated with the QuikChange Primer Design (Agilent Santa Clara, CA USA).
as §1

PvDFRa Q242A = PvDFRa Q242A (Panicum virgatum, UniProt A0A8T0SQV2, Q242A); assay: Enzyme kinetic assay, PvDFRa Q242A mutant; format: biochemical; conditions: for kcat: NADPH 2 mM
Procedure: as §2, §1

SbDFR3 [2] = molecular target: T2, SbDFR3 (Sorghum bicolor, UniProt C5XVF8); assay: Enzyme kinetic assay, SbDFR3; conditions: NADPH 2 mM
Procedure: as §1

SbFNR1 = SbFNR1 (Sorghum bicolor, UniProt C5YGL7); assay: SbFNR1 activity assay (dihydroflavonols, flavanones, anthocyanidins); format: biochemical; conditions: for activity of SbFNR1 against the substrate: in words; for product yield compared to PvDFRa and SbDFR3: flavanones, long incubation
SbFNR2 = SbFNR2 activity assay (dihydroflavonols, flavanones, anthocyanidins); format: biochemical, Sorghum bicolor; conditions: for activity of SbFNR2 against the substrate: in words; for efficiency relative to the activity of SbANR: anthocyanidin reduction
SbANR = SbANR activity assay (dihydroflavonols, flavanones, anthocyanidins); format: biochemical, Sorghum bicolor; conditions: in words
PvDFRa [3] = molecular target: T1, PvDFRa; assay: PvDFRa activity against anthocyanidins (ANR activity); format: biochemical; conditions: anthocyanidin reduction
Procedure: (§3) To measure any overlapping specificity among FNR, DFR, and ANR for anthocyanidins, their activity against cyanidin, pelargonidin, and delphinidin were assayed.
(§4) LC-MS was used to analyze the various flavonoids using a Waters Xevo TQ-MS mass spectrometer interfaced with a Waters Acquity UPLC. […] The chromatographic conditions used were based on. The mobile phase used was a binary gradient of water with 0.1% (v/v) formic acid (Solvent A) and methanol with 0.1% formic acid (Solvent B). The solvent flow rate was 0.2 mL min^-1. and the initial solvent composition was 20% B/80% A and was constant for the first minute following sample injection. Gradient elution was accomplished by increasing the ratio of solvent B to solvent A from 20:80 to 65:35 over 10 min. using a linear gradient, and then increased to 100:0 over the next 4 min. The composition was maintained at 100% B for 5 min., returned to 80%A/20%B over the next 3 min., and held at that ratio for the next 3 min. […]
(§5) Appropriate daughter ions to be used for multiple reaction monitoring (MRM) of (-)-epicatechin were identified by infusing standard and recording spectra. The optimum cone voltage and collision energy of epicatechin were also determined in these infusion experiments. […]

SbDFR3 [4] = molecular target: T2, SbDFR3; assay: SbDFR3 activity against anthocyanidins (ANR activity); format: biochemical; conditions: anthocyanidin reduction
Procedure: as §3, §4, §5

Q: Which results are given for O=C1c2c(O)cc(O)cc2O[C@H](c2ccc(O)cc2)[C@H]1O [DHK, dihydrokaempferol]?
A: Kd (PvDFRa [1]): 26.4 ± 2.26 µM; ∆H (PvDFRa [1]): -6.19 ± 5.54 kcal/mol; ∆S (PvDFRa [1]): 0.854 Cal mol^−1 K^−1; substrate inhibition at higher substrate concentrations (PvDFRa WT): substrate inhibition was observed; increased catalytic efficiency of T143S mutant (PvDFRa T143S): 1.09 fold; kcat (PvDFRa Q242A): 0.007835 s⁻¹; higher catalytic efficiency of Q242A mutant (PvDFRa Q242A; relative to wild-type PvDFRa): 1.7 fold; Km (SbDFR3 [2]): 118 ± 22.6 µM; kcat (SbDFR3 [2]): 0.0101 s⁻¹ and 0.0101 ± 0.00852 s⁻¹; activity of SbFNR1 against the substrate (SbFNR1): no significant activity; activity of SbFNR2 against the substrate (SbFNR2): no significant activity; activity of SbANR against the substrate (SbANR): no significant activity

Q: O=C1c2c(O)cc(O)cc2O[C@H](c2cc(O)c(O)c(O)c2)[C@H]1O [DHM, dihydromyricetin] was tested. Which Kd (PvDFRa [1]) did it give?
A: The Kd was 21.2 ± 3.26 µM.

Q: What about the “∆H” value (PvDFRa [1]) of the same compound?
A: The value was -9.10 ± 2.45 kcal/mol.

Q: What about the “∆S” value (PvDFRa [1]) of the same compound?
A: Its value is −9.14 Cal mol^−1 K^−1.

Q: And the “substrate inhibition at higher substrate concentrations” value (shortened to “substrate inhibition”) (PvDFRa WT)?
A: The value was “substrate inhibition was observed”.

Q: What about the kcat (PvDFRa Q242A) of the same compound?
A: Its kcat is 0.03788 s⁻¹.

Q: What about the kcat (SbDFR3 [2]) of the same compound?
A: Its kcat is 0.07733 s⁻¹.

Q: And the “activity of SbFNR1 against the substrate” value (SbFNR1)?
A: The value was “no significant activity”.

Q: What about the “activity of SbFNR2 against the substrate” value (SbFNR2) of the same compound?
A: Its value is “no significant activity”.

Q: And the “activity of SbANR against the substrate” value (SbANR)?
A: Its value is “no significant activity”.

Q: With O=C1c2c(O)cc(O)cc2O[C@H](c2ccc(O)c(O)c2)[C@H]1O [DHQ, dihydroquercetin] as the compound, how does the Kd (PvDFRa [1]) read?
A: The Kd was 16.9 ± 4.35 µM.

Q: What about the “∆H” value (PvDFRa [1]) of the same compound?
A: The value was -10.77 ± 0.18 kcal/mol.

Q: And the “∆S” value (PvDFRa [1])?
A: The value was −13.7 Cal mol^−1 K^−1.

Q: And the “substrate inhibition” value (PvDFRa WT)?
A: Its value is “substrate inhibition was observed”.

Q: And the “increased catalytic efficiency of T143S mutant” value (PvDFRa T143S)?
A: The value was 3.53 fold.

Q: What about the kcat (PvDFRa Q242A) of the same compound?
A: Its kcat is 0.04285 s⁻¹.

Q: What about the kcat (SbDFR3 [2]) of the same compound?
A: Its kcat is 0.06325 s⁻¹.

Q: And the “activity of SbFNR1 against the substrate” value (SbFNR1)?
A: Its value is “no significant activity”.

Q: What about the “activity of SbFNR2 against the substrate” value (SbFNR2) of the same compound?
A: The value was “no significant activity”.

Q: What about the “activity of SbANR against the substrate” value (SbANR) of the same compound?
A: The value was “no significant activity”.

Q: With O=C1C[C@@H](c2ccc(O)c(O)c2)Oc2cc(O)cc(O)c21 [Eriodictyol, eriodictyol] as the compound, how does the Kd (PvDFRa [1]) read?
A: Its Kd is 64.9 ± 11.8 µM.

Q: What about the “∆H” value (PvDFRa [1]) of the same compound?
A: Its value is -6.23 ± 0.28 kcal/mol.

Q: And the “∆S” value (PvDFRa [1])?
A: Its value is −1.74 Cal mol^−1 K^−1.

Q: And the “substrate inhibition” value (PvDFRa WT)?
A: The value was “substrate inhibition occurred”.

Q: And the “kcat for flavanones, given for PvDFRa” value (PvDFRa WT; NADPH 2 mM)?
A: Its value is 0.00206 s⁻¹.

Q: And the Km (PvDFRa WT; NADPH 2 mM, pH 7.0, 25 °C)?
A: Its Km is 246 ± 224 µM.

Q: And the kcat (PvDFRa WT; NADPH 2 mM, pH 7.0, 25 °C)?
A: Its kcat is 0.01414 ± 0.00932 s⁻¹.

Q: What about the kcat (PvDFRa WT; NADPH 2 mM, pH 7.0, 25 °C, listed as eriodictyol) of the same compound?
A: The kcat was 0.01414 s⁻¹.

Q: What about the Km (SbDFR3 [2]) of the same compound?
A: The Km was 40.7 ± 31.9 µM.

Q: And the kcat (SbDFR3 [2])?
A: Its kcat is 0.00206 ± 0.000183 s⁻¹.

Q: What about the Km (SbDFR3 [2]; read-out: Km) of the same compound?
A: Its Km is 25.2 µM.

Q: And the “product yield compared to PvDFRa and SbDFR3” value (SbFNR1)?
A: Its value is ~ 3%.

Q: What about the “activity of SbFNR2 against the substrate” value (SbFNR2) of the same compound?
A: Its value is “did not display any activity”.

Q: And the “activity of SbANR against the substrate” value (SbANR)?
A: The value was “did not display any activity”.

Q: For O=C1C[C@@H](c2ccc(O)cc2)Oc2cc(O)cc(O)c21 [Naringenin, naringenin], which Kd (PvDFRa [1]) is on record?
A: The Kd was 177 ± 25.3 µM.

Q: What about the “∆H” value (PvDFRa [1]) of the same compound?
A: The value was -4.82 ± 0.39 kcal/mol.

Q: What about the “∆S” value (PvDFRa [1]) of the same compound?
A: Its value is 0.986 Cal mol^−1 K^−1.

Q: And the “substrate inhibition” value (PvDFRa WT)?
A: Its value is “substrate inhibition occurred”.

Q: What about the “kcat for flavanones, given for PvDFRa” value (PvDFRa WT; NADPH 2 mM) of the same compound?
A: The value was 0.03473 s⁻¹.

Q: And the kcat (PvDFRa WT; NADPH 2 mM, pH 7.0, 25 °C)?
A: The kcat was 0.05915 s⁻¹.

Q: What about the “product yield compared to PvDFRa and SbDFR3” value (SbFNR1) of the same compound?
A: Its value is ~ 3%.

Q: What about the “activity of SbFNR2 against the substrate” value (SbFNR2) of the same compound?
A: The value was “did not display any activity”.

Q: And the “activity of SbANR against the substrate” value (SbANR)?
A: Its value is “did not display any activity”.

Q: What does the source list for Oc1cc(O)c2cc(O)c(-c3ccc(O)c(O)c3)[o+]c2c1 [cyanidin]?
A: efficiency relative to the activity of SbANR (SbFNR1; anthocyanidin reduction): 11.9%; efficiency relative to the activity of SbANR (SbFNR2): 7.4%; activity as % of the activity of SbANR (PvDFRa [3]): 0.5%; activity as % of the activity of SbANR (SbDFR3 [4]): 0.9%

Q: With Oc1cc(O)c2cc(O)c(-c3cc(O)c(O)c(O)c3)[o+]c2c1 [delphinidin] as the compound, how does the “activity of SbFNR1 against the substrate” value (SbFNR1) read?
A: Its value is “neither SbFNR1 nor SbFNR2 displayed any activity”.

Q: What about the “activity of SbFNR2 against the substrate” value (SbFNR2) of the same compound?
A: Its value is “neither SbFNR1 nor SbFNR2 displayed any activity”.

Q: What about the “activity of SbANR against the substrate” value (SbANR) of the same compound?
A: The value was “showed activity”.

Q: Which “efficiency relative to the activity of SbANR” value (SbFNR2) does the source give for Oc1ccc([C@H]2Oc3cc(O)cc(O)c3C[C@H]2O)cc1 [epiafzelchin] here?
A: The value was 43%.

Reference: publication PMC10531346, “Structural Similarities and Overlapping Activities among Dihydroflavonol 4-Reductase, Flavanone 4-Reductase, and Anthocyanidin Reductase Offer Metabolic Flexibility in the Flavonoid Pathway” (International Journal of Molecular Sciences, 2023)
